Each structure is given as a SMILES string.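 Grown in 96-well plates, cells were treated for 48 hours with each compound at five concentrations. Insufficient inhibition: endpoint recorded as highest concentration tested. GI50 marks 50% less growth. TGI: concentration producing complete growth inhibition.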

This is an account of results in PubChem BioAssay (NCI).

Among the test systems are A549 NSCLC; M14 melanoma; SNB-75 CNS; MDA-MB-435; BT-549 breast; NCI-H23 lung; SK-MEL-5 melanoma; SN12C renal; OVCAR-3 ovarian; SW-620 colon.
Holding throughout (assay): inhibition of tumour cell growth, NCI panel, 48 h

As for `Cn1cc(-c2nc(-c3c[nH]c4ccncc34)cs2)c2cc(F)ccc21`, the GI50 is 1.85 µM in the assay on A549 NSCLC; 1.79 µM in the assay with M14 melanoma; 1.26 µM in the assay with SNB-75 CNS; 1.64 µM with MDA-MB-435; 1.8 µM in the assay on BT-549 breast; 1.72 µM in the assay on NCI-H23 lung. Besides, the GI50 in the assay on SK-MEL-5 melanoma was 1.65 µM; in the assay with SN12C renal, 1.68 µM; in the assay on OVCAR-3 ovarian, 1.94 µM; in the assay with SW-620 colon, 1.65 µM. The TGI in the assay on A549 NSCLC amounted to 3.57 µM; with M14 melanoma it was 3.37 µM; with SNB-75 CNS, 2.6 µM; in the assay with MDA-MB-435, 3.06 µM; in the assay with BT-549 breast, 3.4 µM; with NCI-H23 lung it was 3.25 µM. Besides, the TGI in the assay with SK-MEL-5 melanoma was determined as 3.03 µM; with SN12C renal, 3.32 µM; with OVCAR-3 ovarian it was 3.69 µM; in the assay with SW-620 colon, 3.4 µM.

As for `COc1ccc(-c2nnc(CCCCCCCCc3nnc(-c4ccc(OC)cc4)n3N)n2N)cc1`, the TGI was over 100 µM in the assay on A549 NSCLC; over 100 µM with M14 melanoma; over 66.4 µM in the assay with SNB-75 CNS; over 100 µM in the assay with MDA-MB-435; over 100 µM in the assay with BT-549 breast; over 100 µM in the assay on NCI-H23 lung. For the same compound, the TGI in the assay on SK-MEL-5 melanoma, with SN12C renal, with OVCAR-3 ovarian and in the assay with SW-620 colon was over 100 µM each time.

For the compound `S=c1nc2sc3c(c2c(Nc2ccc(Br)cc2)[nH]1)CCN(N1CCc2c(sc4nc(=S)[nH]c(Nc5ccc(Br)cc5)c24)C1)C3`, the TGI was over 50 µM in the assay on A549 NSCLC; 17.1 µM with M14 melanoma; over 50 µM in the assay on SNB-75 CNS; over 50 µM in the assay with MDA-MB-435; over 50 µM with BT-549 breast; over 50 µM in the assay on NCI-H23 lung. In addition, the TGI in the assay on SK-MEL-5 melanoma, with SN12C renal, in the assay with OVCAR-3 ovarian and with SW-620 colon was over 50 µM each time.

For the compound `CCOC(=O)C1C[C@H]2CO[C@H](c3ccccc3)N2C1=O` (stereo not given in full), the TGI in the assay with A549 NSCLC, in the assay on M14 melanoma, with SNB-75 CNS, in the assay on MDA-MB-435, with BT-549 breast and in the assay with NCI-H23 lung was over 100 µM in each case. Moreover, the TGI with SK-MEL-5 melanoma, in the assay with SN12C renal, with OVCAR-3 ovarian and with SW-620 colon was over 100 µM throughout.

Turning to `CC1CC(=O)Nc2ccc(N=NN(C)C)cc2N1C=O` (stereo not given), the TGI in the assay with A549 NSCLC, in the assay on M14 melanoma, in the assay with SNB-75 CNS, with MDA-MB-435, with BT-549 breast and with NCI-H23 lung was over 100 µM in each case. Also, the TGI with SK-MEL-5 melanoma, with SN12C renal, in the assay with OVCAR-3 ovarian and in the assay with SW-620 colon was over 100 µM each time.

As for `Cc1cc2c(c(C(=O)NCCC(=O)N[C@@H](C)C(=O)OCc3ccccc3)c1)Oc1c(cc(C)cc1C(=O)NCCC(=O)N[C@@H](C)C(=O)OCc1ccccc1)S2`, the TGI in the assay on A549 NSCLC, in the assay with M14 melanoma, in the assay on SNB-75 CNS, in the assay on MDA-MB-435, in the assay with BT-549 breast and in the assay on NCI-H23 lung was over 100 µM each time. Moreover, the TGI in the assay on SK-MEL-5 melanoma, in the assay with SN12C renal, with OVCAR-3 ovarian and in the assay on SW-620 colon was over 100 µM each time.

As to `Cc1ccc(C(=O)C2=CN=C3C(=O)N(c4ccccc4)N(C)C3(C)C2=N)cc1` (stereo not given), the TGI in the assay on A549 NSCLC, in the assay on M14 melanoma, in the assay on SNB-75 CNS, in the assay with MDA-MB-435, with BT-549 breast and in the assay on NCI-H23 lung was over 100 µM in each case. For the same compound, the TGI in the assay on SK-MEL-5 melanoma, in the assay on SN12C renal, with OVCAR-3 ovarian and with SW-620 colon was over 100 µM throughout.

In the case of `COc1cc(O)c2c(=O)c(OC)c(-c3ccc4c(c3)OCO4)oc2c1OC`, the TGI in the assay with A549 NSCLC was over 50 µM; with M14 melanoma, over 50 µM; in the assay on SNB-75 CNS, 31.9 µM; in the assay on MDA-MB-435, over 50 µM; in the assay with BT-549 breast, over 50 µM; in the assay with NCI-H23 lung, over 50 µM. In addition, the TGI with SK-MEL-5 melanoma, in the assay on SN12C renal, in the assay with OVCAR-3 ovarian and in the assay with SW-620 colon was over 50 µM throughout.

As to `COC12OC3CC4(C)C(=CC3OC(OC(C)C1O)C2O)CCC1C4CCC2(C)C(c3ccc(=O)oc3)CCC12O` (stereo not given), the TGI in the assay on A549 NSCLC was determined as 0.00166 µM; in the assay on M14 melanoma, 0.00497 µM; in the assay with SNB-75 CNS, 0.00571 µM; in the assay on MDA-MB-435 it was 0.00564 µM; with BT-549 breast, 0.00413 µM; in the assay on NCI-H23 lung, 0.00177 µM. In addition, the TGI in the assay with SK-MEL-5 melanoma was 0.00171 µM; with SN12C renal it was 0.00153 µM; in the assay on OVCAR-3 ovarian, 0.00639 µM; in the assay on SW-620 colon it was 0.00731 µM.

Take `NC(=O)C[C@H](NC(=O)C1(NC(=O)[C@H](Cc2ccc(CP(=O)(O)O)cc2)NC(=O)C(=O)O)CCCCC1)C(=O)NCCCc1cccc2ccccc12`: the TGI with A549 NSCLC, in the assay with M14 melanoma, in the assay with SNB-75 CNS, in the assay with MDA-MB-435, in the assay on BT-549 breast and in the assay on NCI-H23 lung was over 10 µM throughout. In addition, the TGI with SK-MEL-5 melanoma, with SN12C renal, in the assay on OVCAR-3 ovarian and in the assay on SW-620 colon was over 10 µM each time.

Take `CN1CCN(/C(N)=C(\C#N)C(=O)Nc2ccccc2)CC1`: the TGI with A549 NSCLC, with M14 melanoma, in the assay on SNB-75 CNS, in the assay with MDA-MB-435, in the assay with BT-549 breast and in the assay with NCI-H23 lung was over 100 µM each time. Also, the TGI in the assay with SK-MEL-5 melanoma, in the assay with SN12C renal, in the assay on OVCAR-3 ovarian and with SW-620 colon was over 100 µM each time.

On to `CO[C@H]1C[C@H](n2cc(C)c(=O)[nH]c2=O)O[C@@H]1CO`, for which the TGI in the assay on A549 NSCLC, in the assay on M14 melanoma, in the assay on SNB-75 CNS, in the assay on MDA-MB-435, with BT-549 breast and in the assay with NCI-H23 lung was over 100 µM each time. Moreover, the TGI with SK-MEL-5 melanoma, in the assay with SN12C renal, in the assay on OVCAR-3 ovarian and in the assay on SW-620 colon was over 100 µM in each case.
